Test results reported in ChEMBL document CHEMBL5512640, “Discovery of novel itaconimide-based derivatives as potent HDAC inhibitors for the efficient treatment of prostate cancer” (Eur J Med Chem, 2024).
Active and inactive are the calls of the source. No cut-off for these calls is given here.

Legend:
Histone deacetylase 1 = Histone deacetylase 1 (Homo sapiens, UniProt Q13547); assay: Inhibition of human HDAC1 incubated for 10 mins followed by fluorogenic substrate addition by fluorescence based analysis
Chain of Histone deacetylase 1 (Q13547 whole entry): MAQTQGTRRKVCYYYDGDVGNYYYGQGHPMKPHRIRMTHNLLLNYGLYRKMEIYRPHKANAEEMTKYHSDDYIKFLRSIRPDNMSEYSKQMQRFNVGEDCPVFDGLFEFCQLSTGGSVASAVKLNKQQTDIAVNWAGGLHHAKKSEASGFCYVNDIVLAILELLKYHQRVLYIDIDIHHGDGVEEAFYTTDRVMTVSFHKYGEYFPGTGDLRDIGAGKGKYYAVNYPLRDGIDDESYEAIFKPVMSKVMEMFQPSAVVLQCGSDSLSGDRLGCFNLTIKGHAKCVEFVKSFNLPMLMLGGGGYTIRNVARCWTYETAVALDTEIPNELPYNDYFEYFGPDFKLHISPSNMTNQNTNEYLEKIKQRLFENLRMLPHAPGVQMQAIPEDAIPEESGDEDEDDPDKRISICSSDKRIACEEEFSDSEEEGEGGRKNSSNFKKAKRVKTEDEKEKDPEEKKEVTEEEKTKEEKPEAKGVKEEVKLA

DU-145 [1] = assay: Antiproliferative activity against human DU-145 cells incubated for 96 hrs by MTT assay; type: functional, cell-based; settings: DU-145, 96 h
PC-3 = assay: Antiproliferative activity against human PC-3 cells incubated for 96 hrs by MTT assay; type: functional, cell-based; settings: PC-3, 96 h
[2] = Toxicity in Balb/c mouse assessed as effect on body weight at 8 mg/kg, ip measured upto 40 days; type: organism-based; settings: in vivo, 960 h, time < 40 day
[3] = Toxicity in Balb/c mouse assessed as mortality at 8 mg/kg, ip measured upto 40 days; type: organism-based; settings: in vivo, 960 h, time < 40 day
DU-145 [4] = assay: Antitumor activity against human DU-145 cells xenografted in Balb/c nude mouse model assessed as tumor growth inhibition at 8 mg/kg, ip administered once daily for 40 days relative to control; type: functional; settings: DU-145, 960 h, time 40 day, read-out: TGI
DU-145 [5] = assay: Induction of apoptosis in human DU-145 cells assessed as apoptotic rate at 1.6 uM measured after 72 hrs by annexin V-FITC and PI staining based flow cytometry analysis relative to control; type: functional
DU-145 [6] = assay: Downregulation of HDAC6 expression in human DU-145 cells at 0.8 uM incubated for 24 hrs by Western blot analysis; type: functional, cell-based
A549 = assay: Antiproliferative activity against human A549 cells incubated for 96 hrs by MTT assay; type: functional, cell-based; settings: A549, 96 h
NCI-H446 = assay: Antiproliferative activity against human NCI-H446 cells incubated for 96 hrs by MTT assay; type: functional, cell-based; settings: NCI-H446, 96 h
NCI-H1650 = assay: Antiproliferative activity against human NCI-H1650 cells incubated for 96 hrs by MTT assay; type: functional, cell-based; settings: NCI-H1650, 96 h
MCF7 = assay: Antiproliferative activity against human MCF7 cells incubated for 96 hrs by MTT assay; type: functional, cell-based; settings: MCF7, 96 h
MDA-MB-231 = assay: Antiproliferative activity against human MDA-MB-231 cells incubated for 96 hrs by MTT assay; type: functional, cell-based; settings: MDA-MB-231, 96 h
HCT-116 = assay: Antiproliferative activity against human HCT-116 cells incubated for 96 hrs by MTT assay; type: functional, cell-based; settings: HCT-116, 96 h
HT-29 = assay: Antiproliferative activity against human HT-29 cells incubated for 96 hrs by MTT assay; type: functional, cell-based; settings: HT-29, 96 h
LNCaP = assay: Antiproliferative activity against human LNCaP cells incubated for 96 hrs by MTT assay; type: functional, cell-based
[7] = target: Polyamine deacetylase HDAC10 (Homo sapiens, UniProt Q969S8); assay: Inhibition of human HDAC10 incubated for 10 mins followed by fluorogenic substrate addition by fluorescence based analysis
Chain of Polyamine deacetylase HDAC10 (Q969S8 whole entry): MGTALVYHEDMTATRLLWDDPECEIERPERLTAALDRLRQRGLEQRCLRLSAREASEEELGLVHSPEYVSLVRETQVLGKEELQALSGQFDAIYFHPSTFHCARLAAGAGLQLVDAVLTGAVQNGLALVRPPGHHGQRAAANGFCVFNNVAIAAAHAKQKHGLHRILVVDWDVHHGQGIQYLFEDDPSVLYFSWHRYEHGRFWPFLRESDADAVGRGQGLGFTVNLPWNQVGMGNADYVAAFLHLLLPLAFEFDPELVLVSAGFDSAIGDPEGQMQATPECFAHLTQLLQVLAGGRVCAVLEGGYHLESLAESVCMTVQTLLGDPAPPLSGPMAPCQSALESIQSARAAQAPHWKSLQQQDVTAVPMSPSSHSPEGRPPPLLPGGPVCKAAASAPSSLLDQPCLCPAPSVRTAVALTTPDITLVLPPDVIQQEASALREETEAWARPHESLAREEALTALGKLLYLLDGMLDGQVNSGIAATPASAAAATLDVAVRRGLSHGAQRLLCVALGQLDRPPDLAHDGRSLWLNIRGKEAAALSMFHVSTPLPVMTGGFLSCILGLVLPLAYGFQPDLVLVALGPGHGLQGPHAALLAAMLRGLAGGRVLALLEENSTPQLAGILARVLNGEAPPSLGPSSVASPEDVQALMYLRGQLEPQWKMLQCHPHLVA

Histone deacetylase 11 = Histone deacetylase 11 (Homo sapiens, UniProt Q96DB2); assay: Inhibition of human HDAC11 incubated for 10 mins followed by fluorogenic substrate addition by fluorescence based analysis
Chain of Histone deacetylase 11 (Q96DB2 whole entry): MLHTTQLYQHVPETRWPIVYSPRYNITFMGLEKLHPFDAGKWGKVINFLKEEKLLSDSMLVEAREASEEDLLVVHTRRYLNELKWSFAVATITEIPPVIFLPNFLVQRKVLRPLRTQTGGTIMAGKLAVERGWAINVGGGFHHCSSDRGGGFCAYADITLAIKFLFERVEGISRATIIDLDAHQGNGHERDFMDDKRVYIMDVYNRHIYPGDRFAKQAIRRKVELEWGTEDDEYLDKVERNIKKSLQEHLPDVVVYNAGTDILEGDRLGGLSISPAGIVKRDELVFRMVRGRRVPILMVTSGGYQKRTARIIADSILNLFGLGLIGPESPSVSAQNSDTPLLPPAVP

Row | Structure (SMILES) | IC50 (Histone deacetylase 1) [nM] | IC50 (DU-145 [1]) [nM] | IC50 (PC-3) [nM] | other results
1 | N#Cc1ccccc1/C=C1\CC(=O)N(CCCCCCC(=O)NO)C1=O | 40.1 | 740 | 870 | –
2 | COc1cccc(/C=C2\CC(=O)N(CCCCCCC(=O)NO)C2=O)c1 | 18.5 | 400 | 920 | –
3 | O=C(CCCCCCN1C(=O)C/C(=C\c2cccs2)C1=O)NO | 25.1 | 540 | 910 | –
4 | CC(=O)O[C@@]12CO[C@@H]1C[C@H](O)[C@@]1(C)C(=O)[C@H](O)C3=C(C)[C@@H](OC(=O)[C@H](O)[C@@H](NC(=O)OC(C)(C)C)c4ccccc4)C[C@@](O)([C@@H](OC(=O)c4ccccc4)[C@H]21)C3(C)C [DOCETAXEL ANHYDROUS] | – | – | – | Activity [2]: Toxic; Activity [3]: Toxic; inhibition in vivo at 8 mg/kg (DU-145 [4]): 13.3%
5 | COc1cc(/C=C2\CC(=O)N(CCCCCCC(=O)NO)C2=O)cc(OC)c1OC | 27.5 | 1030 | 1710 | –
6 | Nc1cc(F)ccc1NC(=O)CCCCCN1C(=O)C/C(=C\c2ccccc2)C1=O | 105 | 11100 | > 20000 | –
7 | Nc1cc(F)ccc1NC(=O)CCCN1C(=O)C/C(=C\c2ccccc2)C1=O | 231 | > 20000 | > 20000 | –
8 | O=C(CCCCCCN1C(=O)C/C(=C\c2ccccc2)C1=O)NO | 12.9 | 500 | 820 | –
9 | O=C(CCCCN1C(=O)C/C(=C\c2ccccc2)C1=O)NO | 136 | > 20000 | > 20000 | –
10 | Nc1cc(F)ccc1NC(=O)CCCCN1C(=O)C/C(=C\c2ccccc2)C1=O | 173 | > 20000 | > 20000 | –
11 | Nc1cc(F)ccc1NC(=O)CCCCCCN1C(=O)C/C(=C\c2ccccc2)C1=O | 144 | > 20000 | > 20000 | –
12 | O=C(CCCCCCN1C(=O)C/C(=C\c2ccc(Cl)cc2)C1=O)NO | 23.4 | 570 | 890 | –
13 | O=C(CCCCCCN1C(=O)C/C(=C\c2ccccc2O)C1=O)NO | 19.4 | 1720 | 1930 | –
14 | O=C(CCCCCCN1C(=O)C/C(=C\c2ccccc2Cl)C1=O)NO | 19.3 | 480 | 1440 | –
15 | O=C(CCCN1C(=O)C/C(=C\c2ccccc2)C1=O)NO | 182 | > 20000 | > 20000 | –
16 | O=C(CCCCCCN1C(=O)C/C(=C\c2ccc(Cl)c(Cl)c2)C1=O)NO | 27.9 | 440 | 1690 | –
17 | O=C(CCCCCCN1C(=O)C/C(=C\c2cccc(I)c2)C1=O)NO | 28.7 | 910 | 1470 | –
18 | O=C(CCCCCCC(=O)Nc1ccccc1)NO [VORINOSTAT] | – | – | – | Activity (DU-145 [5]): 73.76%; Activity (DU-145 [6]): Active

Row | Structure (SMILES) | IC50 (Histone deacetylase 1) [nM] | IC50 (DU-145 [1]) [nM] | IC50 (PC-3) [nM] | other results
19 | O=C(CCCCCCN1C(=O)C/C(=C\c2cccc(F)c2)C1=O)NO | 75.2 | 660 | 890 | –
20 | COc1ccc(Br)cc1/C=C1\CC(=O)N(CCCCCCC(=O)NO)C1=O | 78.1 | 460 | 1130 | –
21 | O=C(NO)c1ccc(CN2C(=O)C/C(=C\c3ccccc3)C2=O)cc1 | 32.9 | 2540 | 7820 | –
22 | O=C(CCCCCCN1C(=O)C/C(=C\c2cccc(Br)c2)C1=O)NO | 19.1 | 650 | 1060 | –
23 | Cc1ccc(/C=C2\CC(=O)N(CCCCCCC(=O)NO)C2=O)cc1 | 25.5 | 310 | 2200 | –
24 | O=C(CCCCCCN1C(=O)C/C(=C\c2cccc(Cl)c2)C1=O)NO | 18.8 | 380 | 1700 | –
25 | Nc1cc(F)ccc1NC(=O)c1ccc(CNC(=O)/C=C/c2cccnc2)cc1 [TUCIDINOSTAT] | – | 1490 | 5770 | IC50 (A549): 9850 nM; IC50 (NCI-H446): 240 nM; IC50 (NCI-H1650): > 20000 nM; IC50 (MCF7): > 20000 nM; IC50 (MDA-MB-231): 1860 nM; IC50 (HCT-116): 920 nM; IC50 (HT-29): 4570 nM; IC50 (LNCaP): 2890 nM; IC50 [7]: 456 nM; IC50 (Histone deacetylase 11): > 5000 nM
26 | COc1ccc(/C=C2\CC(=O)N(CCCCCCC(=O)NO)C2=O)cc1 | 13 | 500 | 890 | –
27 | COc1ccc(/C=C2\CC(=O)N(CCCCCCC(=O)NO)C2=O)cc1OC | 24.7 | 450 | 880 | –
28 | O=C(CCCCCCCN1C(=O)C/C(=C\c2ccccc2)C1=O)NO | 25.2 | 1560 | 5010 | –
29 | CC(C)c1ccc(/C=C2\CC(=O)N(CCCCCCC(=O)NO)C2=O)cc1 | 28.6 | 1350 | 1820 | –
30 | Cc1ccccc1/C=C1\CC(=O)N(CCCCCCC(=O)NO)C1=O | 21.7 | 710 | 930 | –
31 | C=C(CC(N)=O)C(N)=O | – | 14800 | 9990 | –
32 | O=C(CCCCCN1C(=O)C/C(=C\c2ccccc2)C1=O)NO | 32.2 | 1490 | 4270 | –
33 | CCOc1ccccc1/C=C1\CC(=O)N(CCCCCCC(=O)NO)C1=O | 16.7 | 340 | 890 | –
34 | O=C(CCCCCCN1C(=O)C/C(=C\c2ccc(C(F)(F)F)cc2)C1=O)NO | 33.8 | 1220 | 1830 | –
35 | CN(C)c1ccc(/C=C2\CC(=O)N(CCCCCCC(=O)NO)C2=O)cc1 | 26.7 | 920 | 1750 | –
